pIC50: −log10 of the molar value.
Tests used:
CYP2A6 [1] = target: T1, CYP2A6 (Homo sapiens, UniProt P11509); test: Competitive; type: in vitro ADME
T1 sequence (P11509 1-494): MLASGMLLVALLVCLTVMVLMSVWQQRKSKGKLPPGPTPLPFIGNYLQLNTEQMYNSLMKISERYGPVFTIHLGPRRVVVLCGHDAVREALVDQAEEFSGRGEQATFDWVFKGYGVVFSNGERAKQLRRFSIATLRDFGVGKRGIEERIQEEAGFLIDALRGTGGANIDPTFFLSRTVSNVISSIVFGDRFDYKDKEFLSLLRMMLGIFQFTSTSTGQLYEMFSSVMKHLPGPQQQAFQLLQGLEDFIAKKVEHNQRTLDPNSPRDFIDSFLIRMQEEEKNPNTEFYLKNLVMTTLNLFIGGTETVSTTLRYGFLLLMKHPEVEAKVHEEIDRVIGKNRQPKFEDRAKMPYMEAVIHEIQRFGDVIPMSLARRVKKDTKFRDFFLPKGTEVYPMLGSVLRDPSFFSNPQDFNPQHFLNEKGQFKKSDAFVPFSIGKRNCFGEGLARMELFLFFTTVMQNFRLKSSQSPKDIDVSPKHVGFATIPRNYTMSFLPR

CYP3A4 [2] = target: T2, CYP3A4 (Homo sapiens, UniProt P08684); test: Cocktail DDI study: PK of midazolam and 1-OH midazolam with/without nivasorexant
T2 sequence (P08684 whole entry): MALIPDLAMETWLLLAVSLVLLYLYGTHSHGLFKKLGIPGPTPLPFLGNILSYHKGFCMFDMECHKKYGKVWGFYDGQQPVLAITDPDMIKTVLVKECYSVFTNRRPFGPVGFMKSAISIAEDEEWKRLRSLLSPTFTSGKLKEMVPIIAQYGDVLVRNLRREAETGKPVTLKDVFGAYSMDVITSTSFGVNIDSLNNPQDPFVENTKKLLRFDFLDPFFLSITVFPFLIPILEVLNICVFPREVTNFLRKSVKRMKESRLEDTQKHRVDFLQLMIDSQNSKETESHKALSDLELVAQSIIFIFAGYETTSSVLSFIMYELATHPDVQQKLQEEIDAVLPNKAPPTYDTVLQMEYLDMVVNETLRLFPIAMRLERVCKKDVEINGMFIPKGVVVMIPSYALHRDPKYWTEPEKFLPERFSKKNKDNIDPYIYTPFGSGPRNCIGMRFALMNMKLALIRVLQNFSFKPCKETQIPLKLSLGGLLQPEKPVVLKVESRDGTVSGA

CYP1A2 = target: T3, CYP1A2 (Homo sapiens, UniProt P05177); test: Competitive; type: in vitro ADME
T3 sequence (P05177 1-516): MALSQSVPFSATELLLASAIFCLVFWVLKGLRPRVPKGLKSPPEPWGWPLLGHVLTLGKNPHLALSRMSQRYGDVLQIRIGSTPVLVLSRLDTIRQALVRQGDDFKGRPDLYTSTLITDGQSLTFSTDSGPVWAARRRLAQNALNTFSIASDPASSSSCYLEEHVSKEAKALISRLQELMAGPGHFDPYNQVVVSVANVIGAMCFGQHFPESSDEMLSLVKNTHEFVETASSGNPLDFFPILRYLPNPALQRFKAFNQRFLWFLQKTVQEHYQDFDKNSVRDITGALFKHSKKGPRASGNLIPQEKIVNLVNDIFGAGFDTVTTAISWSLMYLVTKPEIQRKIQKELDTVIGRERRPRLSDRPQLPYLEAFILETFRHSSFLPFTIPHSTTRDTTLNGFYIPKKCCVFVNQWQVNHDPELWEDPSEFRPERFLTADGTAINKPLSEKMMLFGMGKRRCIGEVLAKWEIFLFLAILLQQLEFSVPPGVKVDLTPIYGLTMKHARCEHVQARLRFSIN

CYP2A6 [3] = target: T1, CYP2A6; test: Time-dependent; type: in vitro ADME; details: 30 min pre‐incubation with/without NADPH; coumarin 7‐hydroxylation
[4] = cited from earlier work
CYP3A4 [5] = target: T2, CYP3A4; test: Covalent binding; type: in vitro ADME
[6] = Plasma pharmacokinetics of nivasorexant 100 mg b.i.d. in healthy subjects; details: for unbound peak concentration: corrected for molecular weight and f u,p 0.01
CYP2C9 = CYP2C9 (Homo sapiens, UniProt P11712); test: Covalent binding; type: in vitro ADME
Sequence of CYP2C9 (P11712 whole entry): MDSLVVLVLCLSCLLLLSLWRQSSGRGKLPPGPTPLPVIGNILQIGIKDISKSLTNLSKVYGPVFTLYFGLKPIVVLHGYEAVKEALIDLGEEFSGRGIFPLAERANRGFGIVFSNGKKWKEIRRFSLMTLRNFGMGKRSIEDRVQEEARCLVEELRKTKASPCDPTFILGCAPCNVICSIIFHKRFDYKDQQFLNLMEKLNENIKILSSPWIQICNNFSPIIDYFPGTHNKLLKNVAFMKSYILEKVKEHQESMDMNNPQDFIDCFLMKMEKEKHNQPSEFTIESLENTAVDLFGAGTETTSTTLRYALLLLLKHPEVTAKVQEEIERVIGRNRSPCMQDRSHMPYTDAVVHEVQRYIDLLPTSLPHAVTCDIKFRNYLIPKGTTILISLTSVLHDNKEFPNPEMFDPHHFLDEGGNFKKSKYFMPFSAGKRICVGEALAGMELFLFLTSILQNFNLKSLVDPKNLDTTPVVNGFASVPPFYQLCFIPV

Cc1ccc(C(=O)N2CCOC[C@H]2Cc2cccc(-n3nccn3)c2)c(-n2nccn2)c1 [nivasorexant]
pIC50 (CYP2A6 [1]): < 4.00 | CYP3A4 inhibitor classification according to regulatory guidance (CYP3A4 [2]; after 1 day of 100 mg b.i.d.): weak (≥1.25‐ to <2‐fold) | CYP3A4 inhibitor classification according to regulatory guidance (CYP3A4 [2]; after 8 days / repeated 100 mg b.i.d., steady state): moderate (≥ 2‐ to <5‐fold) | pIC50 (CYP1A2): < 4.00 | IC50 shift (CYP2A6 [3]): none | apparent mean terminal half‐life (t ½) ([4]; across dose levels, healthy subjects): 3.3 to 6.5 h | dose proportionality of AUCτ ([4]; multiple oral administration): dose proportional | dose proportionality of C max ([4]; multiple oral administration): less than dose proportional | covalent binding (in words) (CYP3A4 [5]): covalent binding | time to steady‐state trough concentrations ([6]; 100 mg b.i.d.): 3 to 4 days | accumulation index (AIX) ([6]; AUCτ Day 15 / AUCτ Day 8, 8 days of 100 mg b.i.d.): 1.8 | unbound peak concentration ([6]; Day 8): 16 nM | unbound peak concentration ([6]; Day 15): 29 nM | AUC ([6]; both, human, plasma, oral, AUCτ, Trt D, Day 15, repeated 100 mg b.i.d., geometric mean (95% CI)): 8560 ng·h/mL | Cmax ([6]; both, human, plasma, oral, C max, Trt D, Day 15, repeated 100 mg b.i.d., steady state, geometric mean (95% CI)): 1250 ng/mL | t max ([6]; both, human, plasma, oral, t max, Trt D, Day 15, repeated 100 mg b.i.d., median (range)): 2 h | covalent binding (in words) (CYP2C9): covalent binding

Reference: paper PMC10557102 (Pharmacology Research & Perspectives, 2023)
